Measurements: patent publication US20220296611A1, “PHARMACEUTICAL COMPOSITION FOR PREVENTING OR TREATING CANCER” (SEOUL NATIONAL UNIVERSITY R&DB FOUNDATION, priority 2019, published 2022)

Legend:
HeLa cells = assay: Comparison of cell viability of HeLa cells (MTT assay); format: cell-based; details: 24 h and 48 h after treatment; TUDCA 1000 μM, fenbendazole 1.2 μM, doxorubicin 10 μM
Experimental: 3. MTT Assay As illustrated in the flow chart shown in FIG. 1, the degree of cytotoxicity was evaluated through MTT assay. (1) HeLa cells are cervical cancer cell lines. In this experiment, experimental groups were divided as follows: specifically, a group in which HeLa cells are not treated, that is, no treatment group (NT); a doxorubicin-treated group (Doxo); a fenbendazole-treated group (Fen); a TUDCA treated group (TUDCA); and a group treated with a mixture of fenbendazole and TUDCA (Fen+TUDCA), and cell viability was compared over time (24 h, 48 h) after treatment. […] Further, the mixture of fenbendazole and TUDCA was prepared by mixing both compounds with the above concentrations at the same dose. Further, all treatment groups were treated with the corresponding compounds at the same dose.

Hepa cells (Hepa1c1c7) = assay: Comparison of cell viability of Hepa cells (MTT assay, cell number counting); format: cell-based, Murin; details: 48 h
Experimental: After culturing cells, the cells were resuspended in a fresh medium. After obtaining 200 μL of the cell suspension, […] of […] with a dilution factor of 2× was added thereto.
A hemocytometer equipped with a coverslip was prepared, and each chamber was filled with the suspension, followed by counting the number of cells. A specific counting method is as follows.
1) Live cells/ml=No. of cells counted/No. of squares counted×Dilution factor×1000
2) Dead cells/ml=No. of dead cells/No. of squares counted×Dilution factor×100
3) Percentage Viability=No. of live cells/Total No. of cells×100
As illustrated in the flow chart shown in FIG. 1, the degree of cytotoxicity was evaluated through MTT assay.
(1) In the present invention, all liver cancer cell lines were Murin hepatoma cell lines (Hepa1c1c7), hereinafter, referred to as Hepa cells. In this experiment, the following definitions were applied: no treatment group (NT); a fenbendazole treatment group (Fen); a TUDCA 200 μmol treatment group (TUDCA 200); a TUDCA 500 μmol treatment group (TUDCA 500); a TUDCA 1000 μmol treatment group (TUDCA 1000); a mixture of 1.2 μmol fenbendazole and 200 μmol TUDCA (1.2+200); a mixture of 1.2 μmol fenbendazole and 500 μmol TUDCA (1.2+500); a mixture of 1.2 μmol fenbendazole and 1000 μmol TUDCA (1.2+1000), respectively. […]

Structure (SMILES) | apoptotic effects (cell viability of HeLa cells) compared to doxorubicin (HeLa cells) | apoptosis effect depending on the concentration of TUDCA (Hepa cells (Hepa1c1c7))
C[C@H](CCC(=O)NCCS(=O)(=O)O)[C@H]1CC[C@H]2[C@@H]3[C@@H](O)C[C@@H]4C[C@H](O)CC[C@]4(C)[C@H]3CC[C@]12C [TUDCA, tauroursodeoxycholic acid] | more excellent apoptotic effects at 24 h and 48 h after treatment than doxorubicin | the higher the concentration of TUDCA, the better the apoptosis effect at 48 h
COC(=O)Nc1nc2ccc(Sc3ccccc3)cc2[nH]1 [fenbendazole] | more excellent apoptotic effects at 24 h and 48 h after treatment than doxorubicin | 
